Laboratory results as given in patent US12344610B2, “APOL1 inhibitors and methods of use” (Maze Therapeutics, Inc., priority 2022, dated 2025).

Target: T1, APOL1 G2 (Homo sapiens, UniProt O14791, DEL388-389)
T1 construct: expressed in transfected cells; host or cells: HEK293 T-REx clonal line stably expressing GCaMP6f (HEK T-REx/GCaMP6f/APOL1 G2 K6.3), doxycycline induced
T1 sequence (O14791 with tags, fused parts or gaps DEL388-389): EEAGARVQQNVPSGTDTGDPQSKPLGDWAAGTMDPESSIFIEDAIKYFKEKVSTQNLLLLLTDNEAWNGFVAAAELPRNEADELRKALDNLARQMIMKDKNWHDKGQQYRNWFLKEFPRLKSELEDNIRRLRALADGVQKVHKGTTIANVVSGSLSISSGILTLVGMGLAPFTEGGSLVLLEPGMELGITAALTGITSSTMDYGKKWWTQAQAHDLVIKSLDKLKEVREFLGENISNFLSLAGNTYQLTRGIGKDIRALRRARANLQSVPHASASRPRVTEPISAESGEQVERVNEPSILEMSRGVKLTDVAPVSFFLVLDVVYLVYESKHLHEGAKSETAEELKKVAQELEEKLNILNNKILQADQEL
Test: APOL1-mediated calcium transport (calcium influx) assay, HEK T-REx/GCaMP6f/APOL1 G2 K6.3 cells, FLIPR TETRA
Assay type: cell-based
Details: prevention of calcium influx; geometric mean of at least 2 assay runs; † = average of a technical replicate from a single assay run
Outline: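 A HEK293 T-REx clone stably expressing GCaMP6f had APOL1 G2 induced with doxycycline (20 ng/mL solution added) for 6 h. Cells were then washed into Ca2+-free Tyrode's buffer (pH 7.4) and preincubated with compounds (duplicate 8-point) for 10 min at room temperature. Ca2+ injection to 5 mM final produced FLIPR GCaMP fluorescence, giving AC50 for influx inhibition (geometric mean, ≥2 runs).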

Structure (SMILES)	AC50 [nM]
Cc1nc(-c2ccc(OCCN3CCC4(CC3)C(=O)N(C)c3ccccc34)cc2)no1 [Compound 35, 1-methyl-1′-{2-[4-(5-methyl-1,2,4-oxadiazol-3-yl)phenoxy]ethyl}-1,2-dihydrospiro[indole-3,4′-piperidin]-2-one]	142
CC(=O)N1CCCc2cc(OCCN3CCC4(CC3)C(=O)N(C)c3ccccc34)ccc21 [Compound 36, 1′-{2-[(1-acetyl-1,2,3,4-tetrahydroquinolin-6-yl)oxy]ethyl}-1-methyl-1,2-dihydrospiro[indole-3,4′-piperidin]-2-one]	223
CS(=O)(=O)c1c(F)cc(OCCN2CCC3(CC2)C(=O)Nc2ccccc23)cc1F [Compound 42, 1′-[2-(3,5-difluoro-4-methanesulfonylphenoxy)ethyl]-1,2-dihydrospiro[indole-3,4′-piperidin]-2-one]	316
O=C1Nc2ccc(Cl)cc2C12CCN(CCOc1ccc(S(=O)(=O)C3CC3)cc1)CC2 [Compound 43, 5-chloro-1′-{2-[4-(cyclopropanesulfonyl)phenoxy]ethyl}-1,2-dihydrospiro[indole-3,4′-piperidin]-2-one]	507
O=C1Nc2ccccc2C12CCN(CCOc1ccc(S(=O)(=O)C(F)F)cc1)CC2 [Compound 44, 1′-[2-(4-difluoromethanesulfonylphenoxy)ethyl]-1,2-dihydrospiro[indole-3,4′-piperidin]-2-one]	352
NC(=O)c1ccc(OCCN2CCC3(CC2)C(=O)Nc2ccc(Cl)cc23)cc1 [Compound 45, 4-(2-{5-chloro-2-oxo-1,2-dihydrospiro[indole-3,4′-piperidin]-1′-yl}ethoxy)benzamide]	746
NC(=O)c1ccc(OCCN2CCC3(CC2)C(=O)Nc2ccc(Cl)cc23)cc1F [Compound 46, 4-(2-{5-chloro-2-oxo-1,2-dihydrospiro[indole-3,4′-piperidin]-1′-yl}ethoxy)-2-fluorobenzamide]	434
Cc1cc(OCCN2CCC3(CC2)C(=O)Nc2ccc(Cl)cc23)ccc1C(N)=O [Compound 49, 4-(2-{5-chloro-2-oxo-1,2-dihydrospiro[indole-3,4′-piperidin]-1′-yl}ethoxy)-2-methylbenzamide]	875
CS(=O)(=O)c1ccc(OCCN2CCC3(CC2)C(=O)Nc2ccc(Cl)cc23)cc1C#N [Compound 50, 5-(2-{5-chloro-2-oxo-1,2-dihydrospiro[indole-3,4′-piperidin]-1′-yl}ethoxy)-2-methanesulfonylbenzonitrile]	622
CS(=O)(=O)N1CCCc2cc(OCCN3CCC4(CC3)C(=O)Nc3ccc(Cl)cc34)ccc21 [Compound 53, 5-chloro-1′-{2-[(1-methanesulfonyl-1,2,3,4-tetrahydroquinolin-6-yl)oxy]ethyl}-1,2-dihydrospiro[indole-3,4′-piperidin]-2-one]	838
CC(=O)N1CCCc2cc(OCCN3CCC4(CC3)C(=O)Nc3ccc(Cl)cc34)ccc21 [Compound 56, 1′-{2-[(1-acetyl-1,2,3,4-tetrahydroquinolin-6-yl)oxy]ethyl}-5-chloro-1,2-dihydrospiro[indole-3,4′-piperidin]-2-one]	1010
CC(=O)N1Cc2ccc(OCCN3CCC4(CC3)C(=O)Nc3ccc(Cl)cc34)cc2C1 [Compound 57, 1′-{2-[(2-acetyl-2,3-dihydro-1H-isoindol-5-yl)oxy]ethyl}-5-chloro-1,2-dihydrospiro[indole-3,4′-piperidin]-2-one]	706
CNC(=O)N1CCCc2cc(OCCN3CCC4(CC3)C(=O)Nc3ccc(Cl)cc34)ccc21 [Compound 60, 6-(2-{5-chloro-2-oxo-1,2-dihydrospiro[indole-3,4′-piperidin]-1′-yl}ethoxy)-N-methyl-1,2,3,4-tetrahydroquinoline-1-carboxamide]	652
O=C1Nc2ccc(Cl)cc2C12CCN(CCOc1ccc3nccnc3c1)CC2 [Compound 62, 5-chloro-1′-[2-(quinoxalin-6-yloxy)ethyl]-1,2-dihydrospiro[indole-3,4′-piperidin]-2-one]	958
CS(=O)(=O)c1ccc(OCCN2CCC3(CC2)C(=O)Nc2ccc(Cl)cc23)cc1F [Compound 63, 5-chloro-1′-[2-(3-fluoro-4-methanesulfonylphenoxy)ethyl]-1,2-dihydrospiro[indole-3,4′-piperidin]-2-one]	461
CS(=O)(=O)c1ccc(OCCN2CCC3(CC2)C(=O)Nc2ccc(Cl)cc23)cn1 [Compound 64, 5-chloro-1′-{2-[(6-methanesulfonylpyridin-3-yl)oxy]ethyl}-1,2-dihydrospiro[indole-3,4′-piperidin]-2-one]	455

Structure (SMILES)	AC50 [nM]
CN1C(=O)Cc2cc(OCCN3CCC4(CC3)C(=O)Nc3ccc(Cl)cc34)ccc21 [Compound 65, 5-chloro-1′-{2-[(1-methyl-2-oxo-2,3-dihydro-1H-indol-5-yl)oxy]ethyl}-1,2-dihydrospiro[indole-3,4′-piperidin]-2-one]	639
Cc1ccc2c(c1)C1(CCN(CCOc3ccc(S(C)(=O)=O)cc3)CC1)C(=O)N2 [Compound 66, 1′-[2-(4-methanesulfonylphenoxy)ethyl]-5-methyl-1,2-dihydrospiro[indole-3,4′-piperidin]-2-one]	461
Cn1ncc2cc(OCCN3CCC4(CC3)C(=O)Nc3ccc(Cl)cc34)ccc21 [Compound 68, 5-chloro-1′-{2-[(1-methyl-1H-indazol-5-yl)oxy]ethyl}-1,2-dihydrospiro[indole-3,4′-piperidin]-2-one]	< 249
CS(=O)(=O)c1ccc(OCCN2CCC3(CC2)C(=O)Nc2ccc(Cl)cc23)cc1 [Compound 69, 5-chloro-1′-[2-(4-methanesulfonylphenoxy)ethyl]-1,2-dihydrospiro[indole-3,4′-piperidin]-2-one]	216
Cn1ncc2cc(OCCN3CCC4(CC3)C(=O)Nc3ccccc34)ccc21 [Compound 70, 1′-{2-[(1-methyl-1H-indazol-5-yl)oxy]ethyl}-1,2-dihydrospiro[indole-3,4′-piperidin]-2-one]	124
CS(=O)(=O)c1ccc(OCCN2CCC3(CC2)C(=O)Nc2ccc(C#N)cc23)cc1 [Compound 71, 1′-[2-(4-methanesulfonylphenoxy)ethyl]-2-oxo-1,2-dihydrospiro[indole-3,4′-piperidine]-5-carbonitrile]	626
CS(=O)(=O)c1ccc(OCCN2CCC3(CC2)C(=O)Nc2ccc(Br)cc23)cc1 [Compound 72, 5-bromo-1′-[2-(4-methanesulfonylphenoxy)ethyl]-1,2-dihydrospiro[indole-3,4′-piperidin]-2-one]	252
CN(c1ccc(OCCN2CCC3(CC2)C(=O)Nc2ccc(C#N)cc23)cc1)S(C)(=O)=O [Compound 75, N-[4-(2-{5-cyano-2-oxo-1,2-dihydrospiro[indole-3,4′-piperidin]-1′-yl}ethoxy)phenyl]-N-methylmethanesulfonamide]	689
CN(c1ccc(OCCN2CCC3(CC2)C(=O)Nc2ccc(Cl)cc23)cc1)S(C)(=O)=O [Compound 76, N-[4-(2-{5-chloro-2-oxo-1,2-dihydrospiro[indole-3,4′-piperidin]-1′-yl}ethoxy)phenyl]-N-methylmethanesulfonamide]	678
CS(C)(=O)=Nc1ccc(OCCN2CCC3(CC2)C(=O)Nc2ccc(C#N)cc23)cc1 [Compound 77, 1′-[2-(4-{[dimethyl(oxo)-λ^6-sulfanylidene]amino}phenoxy)ethyl]-2-oxo-1,2-dihydrospiro[indole-3,4′-piperidine]-5-carbonitrile]	1600
CN1C(=O)CCc2cc(OCCN3CCC4(CC3)C(=O)Nc3ccc(Cl)cc34)cnc21 [Compound 78, 5-chloro-1′-{2-[(8-methyl-7-oxo-5,6,7,8-tetrahydro-1,8-naphthyridin-3-yl)oxy]ethyl}-1,2-dihydrospiro[indole-3,4′-piperidin]-2-one]	522
CN1C(=O)CCc2cc(OCCN3CCC4(CC3)C(=O)Nc3ccc(C#N)cc34)cnc21 [Compound 79, 1′-{2-[(8-methyl-7-oxo-5,6,7,8-tetrahydro-1,8-naphthyridin-3-yl)oxy]ethyl}-2-oxo-1,2-dihydrospiro[indole-3,4′-piperidine]-5-carbonitrile]	687
CC(C)[C@]1(O)C[C@@H](N2C(=O)CCc3cc(OCCN4CCC5(CC4)C(=O)Nc4ccc(Cl)cc45)cnc32)C1 [Compound 317, 5-chloro-1′-[2-({7-oxo-8-[(cis)-3-hydroxy-3-(propan-2-yl)cyclobutyl]-5,6,7,8-tetrahydro-1,8-naphthyridin-3-yl}oxy)ethyl]-1,2-dihydrospiro[indole-3,4′-piperidin]-2-one]	792
C[C@]1(O)C[C@@H](n2c(=O)ccc3cc(OCCN4CCC5(CC4)C(=O)Nc4ccc(Cl)cc45)cnc32)C1 [Compound 323, 5-chloro-1′-[2-({7-oxo-8-[(cis)-3-hydroxy-3-methylcyclobutyl]-7,8-dihydro-1,8-naphthyridin-3-yl}oxy)ethyl]-1,2-dihydrospiro[indole-3,4′-piperidin]-2-one]	400
C[C@]1(O)C[C@@H](n2c(=O)ccc3cc(OCCN4CCC5(CC4)C(=O)Nc4ccc(C(F)F)cc45)cnc32)C1 [Compound 324, 5-(difluoromethyl)-1′-[2-({7-oxo-8-[(cis)-3-hydroxy-3-methylcyclobutyl]-7,8-dihydro-1,8-naphthyridin-3-yl}oxy)ethyl]-1,2-dihydrospiro[indole-3,4′-piperidin]-2-one]	942
